Measurements published in US20260083708A1, “IL-17 MODULATORS AND USES THEREOF” (NNOCARE PHARMA INC., priority 2024, published 2026).
pIC50: −log10 of the molar value.

Columns and labels:
[1] = molecular target: T1, IL-17AA and IL-17RA (Homo sapiens, UniProt Q16552); experiment: Competitive inhibition of human IL-17AA and IL-17RA binding (HTRF); settings: recombinant IL-17AA (His-tag) and IL-17RA (hFc-tag); read-out: IC50 for Inhibiting IL-AA/IL-RA Binding
T1 construct: purchased Sino Biological 12047-H07B (IL-17AA); 10895-H02H (IL-17RA)
T1 sequence (Q16552 24-155): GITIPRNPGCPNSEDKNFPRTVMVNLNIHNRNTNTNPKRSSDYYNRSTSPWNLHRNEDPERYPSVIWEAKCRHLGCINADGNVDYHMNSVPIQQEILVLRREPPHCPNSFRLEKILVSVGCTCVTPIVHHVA
Procedure, shortened: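 His-IL-17AA (1 nM) premixed 1 h with anti-His-Tb (0.4 nM), and Fc-IL-17RA (1 nM) with anti-IgG-d2 (1 μg/mL); these are pre-mix levels. Compounds, diluted from 10 μM, preincubated 2 h RT with IL-17AA mix; IL-17RA mix then added, 20 min. 665/615 ratio vs no-compound and no-IL-17AA controls; IC50 by 4-parameter fit.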

[2] = test system: IL-17AA-induced IL-17 signaling pathway; experiment: Inhibition of IL-17AA-induced IL-17 signaling pathway in HEK-Blue IL-17 reporter cells (SEAP); type: cell-based; settings: Homo sapiens; HEK-Blue IL-17 cells, IL-17AA 2.5 ng/mL, 20 hours; read-out: IC50 for Inhibiting IL-AA Signaling
Procedure, shortened: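 HEK-Blue IL-17 cells (HEK293 expressing human IL-17RA/RC, ACT1 and NF-κB/AP-1-driven SEAP), 10,000/well, pre-incubated with compound (serial dilution from 10 μM) for 1 h at 37 °C, then stimulated with IL-17AA at 2.5 ng/mL final for 20 h. SEAP in supernatant read with Quanti-Blue at 620 nm; IC50 by 4-parameter fit.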

[3] = test system: IL-17AF-induced IL-17 signaling pathway; experiment: Inhibition of IL-17AF-induced IL-17 signaling pathway; type: cell-based; settings: Homo sapiens; IL-17AF used instead of IL-17AA; read-out: IC50 for Inhibiting IL-AF Signaling
Procedure, shortened: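 HEK293-derived HEK-Blue IL-17 cells (IL-17RA/RC, ACT1, NF-κB/AP-1-driven SEAP) preincubated 1 hour at 37° C with serially diluted compound from 10 μM, then stimulated with IL-17AF for 20 hours. SEAP read colorimetrically at 620 nm; IC50 from 4-parameter fit of % inhibition.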

pIC50 [1] | pIC50 [2] | pIC50 [3] | SMILES
8.60 | 8.40 | 8.08 | CCOCC(=O)N[C@@H](c1ncnn1CC1CC1)[C@@H](C)c1ccc(NC(=O)[C@@H](NC(=O)c2nonc2C)C(C2CC2)C2CC2)c(F)c1 [Compound 63, N-((S)-1,1-dicyclopropyl-3-((4-((1R,2S)-1-(1-(cyclopropylmethyl)-1H-1,2,4-triazol-5-yl)-1-(2-ethoxyacetamido)propan-2-yl)-2-fluorophenyl)amino)-3-oxopropan-2-yl)-4-methyl-1,2,5-oxadiazole-3-carboxamide]
9.05 | 8.55 | 8.44 | Cc1nonc1C(=O)N[C@H](C(=O)Nc1ccc([C@H](C)[C@@H](NC(=O)COC(F)F)c2ncnn2CC2CC2)cc1F)C(C1CC1)C1CC1 [Compound 65, N-((S)-1,1-dicyclopropyl-3-((4-((1R,2S)-1-(1-(cyclopropylmethyl)-1H-1,2,4-triazol-5-yl)-1-(2-(difluoromethoxy)acetamido)propan-2-yl)-2-fluorophenyl)amino)-3-oxopropan-2-yl)-4-methyl-1,2,5-oxadiazole-3-carboxamide]
8.96 | 8.10 | 7.89 | CC(=O)N[C@@H](c1ncnn1CC1CC1)[C@@H](C)c1ccc(NC(=O)[C@@H](NC(=O)c2nonc2C)C(C2CC2)C2CC2)c(F)c1 [Compound 67, N-((S)-1-((4-((1R,2S)-1-acetamido-1-(1-(cyclopropylmethyl)-1H-1,2,4-triazol-5-yl)propan-2-yl)-2-fluorophenyl)amino)-3,3-dicyclopropyl-1-oxopropan-2-yl)-4-methyl-1,2,5-oxadiazole-3-carboxamide]
8.47 | 8.12 | 8.14 | Cc1nonc1C(=O)N[C@H](C(=O)Nc1ccc([C@H](C)[C@@H](NC(=O)CC#N)c2ncnn2CC2CC2)cc1F)C(C1CC1)C1CC1 [Compound 70, N-((S)-1-((4-((1R,2S)-1-(2-cyanoacetamido)-1-(1-(cyclopropylmethyl)-1H-1,2,4-triazol-5-yl)propan-2-yl)-2-fluorophenyl)amino)-3,3-dicyclopropyl-1-oxopropan-2-yl)-4-methyl-1,2,5-oxadiazole-3-carboxamide]
9.00 | 8.72 | 8.07 | CCC(=O)N[C@@H](c1ncnn1CC1CC1)[C@@H](C)c1ccc(NC(=O)[C@@H](NC(=O)c2ccnn2CC)C(C2CC2)C2CC2)c(F)c1 [Compound 72, N-((S)-1,1-dicyclopropyl-3-((4-((1R,2S)-1-(1-(cyclopropylmethyl)-1H-1,2,4-triazol-5-yl)-1-propionamidopropan-2-yl)-2-fluorophenyl)amino)-3-oxopropan-2-yl)-1-ethyl-1H-pyrazole-5-carboxamide]
8.27 | 7.51 | 7.21 | CCC(=O)N[C@@H](c1ncnn1CC1CC1)[C@@H](C)c1ccc(NC(=O)[C@@H](NC(=O)c2nsnc2C)C(C2CC2)C2CC2)c(F)c1 [Compound 74, N-((S)-1,1-dicyclopropyl-3-((4-((1R,2S)-1-(1-(cyclopropylmethyl)-1H-1,2,4-triazol-5-yl)-1-propionamidopropan-2-yl)-2-fluorophenyl)amino)-3-oxopropan-2-yl)-4-methyl-1,2,5-thiadiazole-3-carboxamide]

Continued, compound first:

SMILES | pIC50 [1] | pIC50 [2] | pIC50 [3]
CCn1nccc1C(=O)N[C@H](C(=O)Nc1ccc([C@H](C)[C@@H](NC(=O)COC)c2nnc(C3CCN3C)s2)cc1F)C(C1CC1)C1CC1 (stereo partly drawn) [Compound 59, N-((2S)-1,1-dicyclopropyl-3-((2-fluoro-4-((1R,2S)-1-(2-methoxyacetamido)-1-(5-(1-methylazetidin-2-yl)-1,3,4-thiadiazol-2-yl)propan-2-yl)phenyl)amino)-3-oxopropan-2-yl)-1-ethyl-1H-pyrazole-5-carboxamide] | 6.63 | 6.02 | 5.81
Cc1nonc1C(=O)N[C@H](C(=O)Nc1ccc([C@H](C)[C@@H](NC(=O)COC2CC2)c2ncnn2CC2CC2)cc1F)C(C1CC1)C1CC1 [Compound 60, N-((S)-1-((4-((1R,2S)-1-(2-cyclopropoxyacetamido)-1-(1-(cyclopropylmethyl)-1H-1,2,4-triazol-5-yl)propan-2-yl)-2-fluorophenyl)amino)-3,3-dicyclopropyl-1-oxopropan-2-yl)-4-methyl-1,2,5-oxadiazole-3-carboxamide] | 8.77 | 8.48 | 8.41
COCC(=O)N[C@@H](c1ncnn1CCN(C)C)[C@@H](C)c1ccc(NC(=O)[C@@H](NC(=O)c2nonc2C)C(C2CC2)C2CC2)c(F)c1 [Compound 61, N-((S)-1,1-dicyclopropyl-3-((4-((1R,2S)-1-(1-(2-(dimethylamino)ethyl)-1H-1,2,4-triazol-5-yl)-1-(2-methoxyacetamido)propan-2-yl)-2-fluorophenyl)amino)-3-oxopropan-2-yl)-4-methyl-1,2,5-oxadiazole-3-carboxamide] | 7.92 | 7.41 | 7.13
[2H]C([2H])([2H])n1nccc1C(=O)N[C@H](C(=O)Nc1ccc([C@H](C)[C@@H](NC(=O)CC)c2ncnn2CC2CC2)cc1F)C(C1CC1)C1CC1 [Compound 62, N-((S)-1,1-dicyclopropyl-3-((4-((1R,2S)-1-(1-(cyclopropylmethyl)-1H-1,2,4-triazol-5-yl)-1-propionamidopropan-2-yl)-2-fluorophenyl)amino)-3-oxopropan-2-yl)-1-(methyl-d3)-1H-pyrazole-5-carboxamide] | 8.59 | 8.19 | 7.74
Cc1nonc1C(=O)N[C@H](C(=O)Nc1ccc([C@H](C)[C@@H](NC(=O)COC(F)(F)F)c2ncnn2CC2CC2)cc1F)C(C1CC1)C1CC1 [Compound 64, N-((S)-1,1-dicyclopropyl-3-((4-((1R,2S)-1-(1-(cyclopropylmethyl)-1H-1,2,4-triazol-5-yl)-1-(2-(trifluoromethoxy)acetamido)propan-2-yl)-2-fluorophenyl)amino)-3-oxopropan-2-yl)-4-methyl-1,2,5-oxadiazole-3-carboxamide] | 8.96 | 8.44 | 8.23
[2H]C([2H])([2H])OCC(=O)N[C@@H](c1ncnn1CC1CC1)[C@@H](C)c1ccc(NC(=O)[C@@H](NC(=O)c2ccnn2CC)C(C2CC2)C2CC2)c(F)c1 [Compound 68, N-((S)-1,1-dicyclopropyl-3-((4-((1R,2S)-1-(1-(cyclopropylmethyl)-1H-1,2,4-triazol-5-yl)-1-(2-(methoxy-d3)acetamido)propan-2-yl)-2-fluorophenyl)amino)-3-oxopropan-2-yl)-1-ethyl-1H-pyrazole-5-carboxamide] | 8.35 | 8.25 | 8.19
[2H]C([2H])([2H])n1nccc1C(=O)N[C@H](C(=O)Nc1ccc([C@H](C)[C@@H](NC(=O)CO)c2ncnn2CC2CC2)cc1F)C(C1CC1)C1CC1 [Compound 69, N-((S)-1,1-dicyclopropyl-3-((4-((1R,2S)-1-(1-(cyclopropylmethyl)-1H-1,2,4-triazol-5-yl)-1-(2-hydroxyacetamido)propan-2-yl)-2-fluorophenyl)amino)-3-oxopropan-2-yl)-1-(methyl-d3)-1H-pyrazole-5-carboxamide] | 7.89 | 7.38 | 7.13
[2H]C([2H])([2H])OCC(=O)N[C@@H](c1ncnn1CC1CC1)[C@@H](C)c1ccc(NC(=O)[C@@H](NC(=O)c2ccnn2C([2H])([2H])[2H])C(C2CC2)C2CC2)c(F)c1 [Compound 71, N-((S)-1,1-dicyclopropyl-3-((4-((1R,2S)-1-(1-(cyclopropylmethyl)-1H-1,2,4-triazol-5-yl)-1-(2-(methoxy-d3)acetamido)propan-2-yl)-2-fluorophenyl)amino)-3-oxopropan-2-yl)-1-(methyl-d3)-1H-pyrazole-5-carboxamide] | 8.28 | 8.02 | 7.89
CCC(=O)N[C@@H](c1ncnn1CC1CC1)[C@@H](C)c1ccc(NC(=O)[C@@H](NC(=O)c2ccnn2C2CN(C)C2)C(C2CC2)C2CC2)c(F)c1 [Compound 73, N—((S)-1,1-dicyclopropyl-3-((4-((1R,2S)-1-(1-(cyclopropylmethyl)-1H-1,2,4-triazol-5-yl)-1-propionamidopropan-2-yl)-2-fluorophenyl)amino)-3-oxopropan-2-yl)-1-(1-methylazetidin-3-yl)-1H-pyrazole-5-carboxamide] | 6.76 | 6.82 | 6.74
